# Where a name gives a salt, the structure may show the parent alone.
# Assays:
# [1] = Hygroscopicity observed in preparation; assay type: physicochemical; conditions: dried before use by heating in vacuo
# [2] = target: T1, adrenal membrane angiotensin II receptor (Oryctolagus cuniculus, UniProt P34976); assay: Test A: binding affinity to the adrenal membrane angiotensin II receptor in vitro; set-up: species or system rabbit (male New Zealand white); conditions: rabbit adrenal membranes, 0.05 nM [^125 I]angiotensin II, 60 minutes at 25° C.; read-out: Ki from Test A
# T1 construct: Aliquots of rabbit adrenal membranes containing 10-30 μg protein were incubated; from tissue; host or cells: adrenal gland membranes of male New Zealand white rabbits
# T1 sequence (P34976 1-359): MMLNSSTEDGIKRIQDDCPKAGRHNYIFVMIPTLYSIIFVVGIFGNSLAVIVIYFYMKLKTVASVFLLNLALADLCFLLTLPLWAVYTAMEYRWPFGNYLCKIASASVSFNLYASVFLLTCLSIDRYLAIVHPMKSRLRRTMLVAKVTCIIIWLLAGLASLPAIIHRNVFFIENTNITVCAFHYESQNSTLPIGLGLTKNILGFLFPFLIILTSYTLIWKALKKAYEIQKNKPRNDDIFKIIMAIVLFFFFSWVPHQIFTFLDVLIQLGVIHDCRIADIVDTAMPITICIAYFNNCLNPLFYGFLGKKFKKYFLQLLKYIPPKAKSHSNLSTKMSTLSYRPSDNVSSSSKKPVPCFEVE
# Method: In test A the binding affinity of compounds to the adrenal membrane angiotensin II receptor was determined in vitro and in tests B and C the antihypertensive effect of the compounds was measured in vivo. A detailed description of the tests follows. Test A 1) Preparation of Membranes Adrenal glands from male New Zealand white rabbits were homogenised on ice in 20 mM aqueous sodium bicarbonate solution containing 50 μM PMSF (phenylmethanesulphonyl fluoride) (2 ml/g wet weight) using a Polytron (Trademark) homogeniser for 3×15 seconds at setting 8. The homogenate was centrifuged at 900 g for 10 minutes at 4° C. and the pellet was discarded. The supernatant was recentrifuged at 30000 g for 30 minutes at 4° C., and the resulting pellet was resuspended in assay buffer (50 mM Tris-HCl, pH 7.4, containing 1 mM EDTA, 6.5 mM MgCl2, 125 mM NACl, 50 μM PMSF, 5 μg/ml pepstatin and 50 μg/ml each of leupeptin, antipain, aprotinin and chymostatin): 10 ml per g original tissue wet weight. Polyethylene glycol was added (final concentration 30%) as a cryopreservant and the membrane preparation divided into aliquots and stored at -80° C. until required. Protein was determined by a modification of the method of Lowry (Markwell et al, (1978) Anal. Biochem., 87: 206-210). 2) Binding Assay Aliquots of rabbit adrenal membranes containing 10-30 μg protein were incubated with 0.05 nM [^125 I]angiotensin II in the presence or absence of potential angiotensin II antagonists in 1 ml polyamide tubes in a total volume of 200 μI assay buffer. After incubation for 60 minutes am 25° C. the reaction was terminated by the addition of ice-cold assay buffer, and the bound and free radioactivity was separated through Skatron (Trademark) receptor-binding filters, pre-wetted with assay buffer, using a Skatron cell harvester. The filters were washed with ice-cold phosphate buffered saline, dried, and the trapped radioactivity was determined using a gamma counter. Non-specific binding, measured in the presence of 2 μM unlabelled angiotensin II, was subtracted from total binding to obtain specific binding. Radioligand binding curves were analysed using EBDA and LIGAND (Cambridge Biosoft). Values for binding affinity were obtained by nonlinear regression analysis of untransformed data. The activities of the compounds described in the Examples given hereinafter are set out below in Table A, Column 1.
# [3] = system: Aoki-Okamoto strain of spontaneously hypertensive rat; assay: Test B: oral antihypertensive effect, threshold dose; assay type: in vivo; conditions: dose giving a reduction of blood pressure of between 9 and 16% after correction, 1.5 and 5.0 hours after dosing; for minimal effective dose: Rattus norvegicus, po, 5 h, read-out: Threshold anti-hypertensive dose from Test B
# Method: (§1) In test A the binding affinity of compounds to the adrenal membrane angiotensin II receptor was determined in vitro and in tests B and C the antihypertensive effect of the compounds was measured in vivo. A detailed description of the tests follows.
# (§2) Female rats, weight range 180-240 g, of the Aoki-Okamoto strain of spontaneously hypertensive rat were used. The rats in groups of four were fasted overnight before administration of the test compound. Blood pressure was determined in the following way. The rats were placed in a cabinet kept at 38° C. with their tails protruding through holes in the cabinet. After 30 minutes in the cabinet blood pressure was measured using an inflatable cuff placed round the base of the mail and arterial pulsations monitored with a pneumatic pulse transducer. […] The pressure in the cuff at which arterial pulsations reappeared was taken as the blood pressure. The rats were removed from the cabinet and each group orally dosed with a given dose of the test compound given as a solution or suspension in 0.25% aqueous carboxymethylcellulose. In addition to the predose reading, blood pressure was measured at 1.5 and 5.0 hours after dosing. The degree of blood pressure reduction sufficient to achieve a significance level of p<0.01 compared to controls was 9% after correction for control changes at appropriate time intervals. Thus, compounds were considered to be active in this test if they produced a reduction of blood pressure after correction of 9% or greater than 9%.
# (§3) Threshold antihypertensive doses of compounds of formula I were determined in the following way. Compounds were tested initially at a particular dose level, for example 90 mg/kg.
# The activities of the compounds described in the Examples given hereinafter are set out below in Table A, Column 2.
# [4] = system: Aoki-Okamoto strain of spontaneously hypertensive rat; assay: Test C: oral antihypertensive effect after pretreatment with bendrofluazide, threshold dose; assay type: in vivo; conditions: pretreated with bendrofluazide 10 mg/kg at 16 hours and 2 hours prior to dose
# Method: as §1, §2, §3
# The procedure of Test B above was carried out subject to the modification of pretreating the rats with bendrofluazide 10 mg/kg (an orally administered diuretic) at 16 hours and 2 hours prior to the dose of the test compound, to ensure activation of the reninangiotensin system.
# The activities of the compounds described in the Examples given hereinafter are set out below in Table A, Column 3.
hygroscopic [1],Ki [2] [nM],SMILES,minimal effective dose [3] [mg/kg],Threshold anti-hypertensive dose from Test C [4] [mg/kg],Threshold anti-hypertensive dose from Test B [3] [mg/kg]
appeared to be hygroscopic,1890,"CCc1nc2c(C)cc(C)nc2n1Cc1ccc(-c2ccccc2-c2c(N(C)C)c(=O)c2=O)cc1 [Example 16, 3-dimethylamino-4-[4'-(2-ethyl-5,7-dimethyl-3H-imidazo-[4,5-b]pyrid-3-ylmethyl)biphenyl-2-yl]cyclobut-3-ene-1,2-dione]",,,
,19,"CCc1nc2c(C)cc(C)nc2n1Cc1ccc(-c2ccccc2-c2c(OCOC(=O)C(C)(C)C)c(=O)c2=O)cc1 [Example 13, 2-[4'-(2-ethyl-5,7-dimethyl-3H-imidazo[4,5-b]pyrid-3-ylmethyl)biphenyl-2-yl]-3,4-dioxocyclobut-1-en-1-yloxymethyl pivalate]",10,< 10,
appeared to be hygroscopic,21.5,"CCc1nc2c(C)cc(C)nc2n1Cc1ccc(-c2ccccc2-c2c(OC(C)OC(=O)C(C)(C)C)c(=O)c2=O)cc1 (stereo not shown) [Example 17, 1-[2-[4'-(2-ethyl-5,7-dimethyl-3H-imidazo[4,5-b]pyrid-3-ylmethyl)biphenyl-2-yl]-3,4-dioxocyclobut-1-en-1-yloxy]ethyl pivalate 0.22 ethyl acetate solvate]",,,
,3.19,"CCCc1nc2c(C)cc(C)nc2n1Cc1ccc(-c2ccccc2-c2c(O)c(=O)c2=O)cc1 [Example 8, 3-[4'-(5 7-dimethyl-2-propyl-3H-imidazo[4,5-b]pyrid-3-ylmethyl)biphenyl-2-yl]-4-hydroxycyclobut-3-ene-1,2-dione]",10,< 10,
,81.7,"CCCCN(Cc1ccc(-c2ccccc2-c2c(O)c(=O)c2=O)cc1)c1ncncc1C(=O)O [Example 20, 4-[N-butyl-N-[2'-(2-hydroxy-3,4-dioxocyclobut-1-en-1-yl)biphenyl-4-ylmethyl]amino]pyrimidine-5-carboxylicacid 0.6 hydrochloride]",3,1,
,1.78,"CCc1nc2c(C)cc(C)nc2n1Cc1ccc(-c2ccccc2-c2c(O)c(=O)c2=O)cc1 (single isomer, unassigned) [Example 5, sodium salt of 3-[4'-(2-ethyl-5,7-dimethyl-3H-imidazo[4,5-b]pyrid-3-ylmethyl)biphenyl-2-yl]-4-hydroxycyclobut-3-ene-1,2-dione]",,1,1
,13.7,"CCCCc1nc(Cl)c(C(=O)O)n1Cc1ccc(-c2ccccc2-c2c(O)c(=O)c2=O)cc1 [Example 29, 2-butyl-4-chloro-1-[2'-(2-hydroxy-3,4-dioxocyclobut-1-en-1-yl)biphenyl-4-ylmethyl]-1H-imidazole-5-carboxylic acid 0.4 hydrochloride]",> 3,3,
